Source: patent US20260207654A1, “HEPARAN SULFATE AND ITS MIMETICS AS CHEMOKINE INHIBITORS” (INDIAN INSTITUTE OF SCIENCE EDUCATION AND RESEARCH, priority 2021, published 2026)

Experiments:
CXCL10 [1] = biological target: T1, CXCL10 (Homo sapiens, UniProt P02778); test: Chemokine glycan microarray binding assay; conditions: maximum RFU set as 100% binding, average across 2 glycan concentrations and 3 chemokine dilutions (n=6)
T1 sequence (P02778 22-98): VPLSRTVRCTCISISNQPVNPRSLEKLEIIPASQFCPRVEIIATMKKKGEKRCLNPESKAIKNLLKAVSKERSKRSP
Summary of the method: (§1)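 Glycans printed at 100 μM (four replicates) on epoxy slides, blocked with ethanolamine and ovalbumin, then incubated 2 h at RT with chemokines at three serial dilutions in PBS pH 7.3/1% ovalbumin. Bound chemokine detected with biotinylated secondary antibody plus Cy3-streptavidin; RFU ranked against block maximum (100%), averaged across dilutions.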

CCL13 = CCL13 (Homo sapiens, UniProt Q99616); test: Chemokine glycan microarray binding assay; conditions: maximum RFU set as 100% binding, average across 2 glycan concentrations and 3 chemokine dilutions (n=6)
Chain of CCL13 (Q99616 17-98, species assumed): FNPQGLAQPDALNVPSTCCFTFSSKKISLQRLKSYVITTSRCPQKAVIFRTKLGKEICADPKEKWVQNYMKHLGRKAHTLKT
Summary of the method: as §1

CCL5 [2] = biological target: T2, CCL5 (Homo sapiens, UniProt P13501); test: Chemokine glycan microarray binding assay; conditions: maximum RFU set as 100% binding, average across 2 glycan concentrations and 3 chemokine dilutions (n=6)
T2 sequence (P13501 24-91): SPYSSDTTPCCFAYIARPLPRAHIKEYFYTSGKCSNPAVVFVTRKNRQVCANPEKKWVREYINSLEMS
Summary of the method: as §1

CCL2 [3] = biological target: T3, CCL2 (Homo sapiens, UniProt P13500); test: Chemokine glycan microarray binding assay; conditions: maximum RFU set as 100% binding, average across 2 glycan concentrations and 3 chemokine dilutions (n=6)
T3 sequence (P13500 24-99, species assumed): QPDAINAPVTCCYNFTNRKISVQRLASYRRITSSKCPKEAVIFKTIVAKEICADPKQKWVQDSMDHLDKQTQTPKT
Summary of the method: as §1

CXCL8 [4] = biological target: T4, CXCL8 (Homo sapiens, UniProt P10145); test: Chemokine glycan microarray binding assay; conditions: maximum RFU set as 100% binding, average across 2 glycan concentrations and 3 chemokine dilutions (n=6)
T4 sequence (P10145 21-99): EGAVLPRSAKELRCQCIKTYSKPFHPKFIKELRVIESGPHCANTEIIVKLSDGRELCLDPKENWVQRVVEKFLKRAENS
Summary of the method: as §1

CXCL12 [5] = biological target: T5, CXCL12 (Homo sapiens, UniProt P48061); test: Chemokine glycan microarray binding assay; conditions: maximum RFU set as 100% binding, average across 2 glycan concentrations and 3 chemokine dilutions (n=6)
T5 sequence (P48061 22-93, species assumed): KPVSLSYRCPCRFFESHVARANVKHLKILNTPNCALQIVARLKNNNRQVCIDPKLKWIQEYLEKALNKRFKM
Summary of the method: as §1

CCL21 = biological target: T6, CCL21 (Homo sapiens, UniProt O00585); test: Chemokine glycan microarray binding assay; conditions: maximum RFU set as 100% binding, average across 2 glycan concentrations and 3 chemokine dilutions (n=6)
T6 sequence (O00585 24-134): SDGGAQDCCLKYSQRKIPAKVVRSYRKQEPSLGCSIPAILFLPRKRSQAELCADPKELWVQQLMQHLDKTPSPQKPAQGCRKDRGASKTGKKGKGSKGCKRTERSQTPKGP
Summary of the method: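 Epoxy-slide glycan array; block: PBS pH 7.3 + 1% ovalbumin, 1 h RT. Chemokine, 3 serial dilutions, 2 h RT; biotin-secondary Ab 1 μg/mL → Cy3-SA; fluorescence scan. Max RFU per block = 100%, others ranked; mean rank ± SEM over dilutions.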

CCL28 = biological target: T7, CCL28 (Homo sapiens, UniProt Q9NRJ3); test: Chemokine glycan microarray binding assay; conditions: maximum RFU set as 100% binding, average across 2 glycan concentrations and 3 chemokine dilutions (n=6)
T7 sequence (Q9NRJ3 20-127): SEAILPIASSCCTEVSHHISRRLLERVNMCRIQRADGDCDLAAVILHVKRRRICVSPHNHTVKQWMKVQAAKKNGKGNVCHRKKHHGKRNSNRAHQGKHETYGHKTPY
Summary of the method: as §1

CCL7 [6] = biological target: T8, CCL7 (Homo sapiens, UniProt P80098); test: Chemokine glycan microarray binding assay; conditions: maximum RFU set as 100% binding, average across 2 glycan concentrations and 3 chemokine dilutions (n=6)
T8 sequence (P80098 24-99, species assumed): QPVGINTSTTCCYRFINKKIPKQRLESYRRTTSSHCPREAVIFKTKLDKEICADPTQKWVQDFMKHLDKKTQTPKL
Summary of the method: as §1

CXCL10 [7] = biological target: T1, CXCL10; test: Surface Plasmon Resonance (SPR) binding kinetics; conditions: compound immobilized on CM5 chip, 25° C., 1:1 model
Description: (§2) FIG. 1: SPR analysis of chemokines binding profile for the compounds of present invention: SPR binding analysis of the interaction between the examples 12, 17, and 19, chemokines were reported, Concentrations of chemokines were 0.05-2 μM. A global fit according to a 1:1 binding model was applied (black curves).
(§3) Surface Plasmon Resonance (SPR) binding kinetics The compound of present invention (test compound, Example 12) was covalently immobilized on sensor chip via coupling reaction. At first, the dextran matrix on CM5 chip was activated with NHS (0.02 M) and EDC coupling reagent (0.2 M) at a flow rate of 5 μL min^−1 for 15 min before activating with 50 μL of test compound (0.5 mM) in HBS-EP buffer. In the negative control cell after EDC and NHS activation, 0.5 mM of ethanol amine solution was flowed. The positive RU response on test compound confirmed immobilization of the HS ligand on CM5 chips. Then, different chemokines at a flow rate of 50 μL/min and 25° C. in HBS-EP buffer without growth factor was then flowed over the sensor surface for 3 min to enable association/dissociation. Kinetic analysis was performed using the BIA evaluation software for T100. Association and dissociation phase data were globally fitted to a simple 1:1 interaction model.
(§4) Table 2: SPR analysis of kinetic rate constants and equilibrium affinities of compounds of present invention binding to chemokines
as §3, with “The” for “Surface Plasmon Resonance (SPR) binding kinetics The”, “12, 17 & 18)” for “12)”

CCL5 [8] = biological target: T2, CCL5; test: Surface Plasmon Resonance (SPR) binding kinetics; conditions: compound immobilized on CM5 chip, 25° C., 1:1 model
Description: as §2, §3, §4
as §3, with “The” for “Surface Plasmon Resonance (SPR) binding kinetics The”, “12, 17 & 18)” for “12)”

CCL2 [9] = biological target: T3, CCL2; test: Surface Plasmon Resonance (SPR) binding kinetics; conditions: compound immobilized on CM5 chip, 25° C., 1:1 model
Description: as §2, §3, §4
as §3, with “The” for “Surface Plasmon Resonance (SPR) binding kinetics The”, “12, 17 & 18)” for “12)”

CXCL8 [10] = biological target: T4, CXCL8; test: Surface Plasmon Resonance (SPR) binding kinetics; conditions: compound immobilized on CM5 chip, 25° C., 1:1 model
Description: as §2, §3, §4
as §3, with “The” for “Surface Plasmon Resonance (SPR) binding kinetics The”, “12, 17 & 18)” for “12)”

CXCL12 [11] = biological target: T5, CXCL12; test: Surface Plasmon Resonance (SPR) binding kinetics; conditions: compound immobilized on CM5 chip, 25° C., 1:1 model
Description: as §2, §3, §4
as §3, with “The” for “Surface Plasmon Resonance (SPR) binding kinetics The”, “12, 17 & 18)” for “12)”

CCL7 [12] = biological target: T8, CCL7; test: Surface Plasmon Resonance (SPR) binding kinetics; conditions: compound immobilized on CM5 chip, 25° C., 1:1 model
Description: as §2, §3, §4
as §3, with “The” for “Surface Plasmon Resonance (SPR) binding kinetics The”, “12, 17 & 18)” for “12)”

mean rank binding to CXCL10 (CXCL10 [1]) [%] | mean rank binding to CCL13 (CCL13) [%] | mean rank binding to CCL5 (CCL5 [2]) [%] | mean rank binding to CCL2 (CCL2 [3]) [%] | mean rank binding to CXCL8 (CXCL8 [4]) [%] | mean rank binding to CXCL12 (CXCL12 [5]) [%] | mean rank binding to CCL21 (CCL21) [%] | mean rank binding to CCL28 (CCL28) [%] | mean rank binding to CCL7 (CCL7 [6]) [%] | Kd (CXCL10 [7]) [µM] | Koff (CXCL10 [7]) | Kon (CXCL10 [7]) | Koff (CCL5 [8]) | Kon (CCL5 [8]) | Koff (CCL2 [9]) | Kon (CCL2 [9]) | Kd (CXCL8 [10]) [µM] | Koff (CXCL8 [10]) | Kon (CXCL8 [10]) | SMILES | Kd (CCL5 [8]) [µM] | also measured
96 | 69 | 82 | 95 | 94 | 80 | 73 | 54 | 89 | 11 ± 0.37 | 1.69 ± 0.33 × 10^−1 S^−1 | 1.53 ± 0.26 × 10^4 M^−1S^−1 | 2.98 ± 0.31 × 10^−1 S^−1 | 4.37 ± 0.31 × 10^4 M^−1S^−1 | 2.11 ± 0.34 × 10^−1 S^−1 | 11.17 ± 0.32 × 10^4 M^−1S^−1 | 11.7 ± 0.17 | 2.18 ± 0.28 × 10^−1 S^−1 | 1.87 ± 0.22 × 10^4 M^−1S^−1 | NCCCO[C@@H]1O[C@@H](C(=O)O)[C@@H](O[C@H]2O[C@H](COS(=O)(=O)O)[C@@H](O[C@@H]3O[C@@H](C(=O)O)[C@@H](O[C@H]4O[C@H](COS(=O)(=O)O)[C@@H](O)[C@H](OS(=O)(=O)O)[C@H]4N)[C@H](O)[C@H]3O)[C@H](OS(=O)(=O)O)[C@H]2N)[C@H](O)[C@H]1O [Example 17, 3-Aminopropyl-O-[(2-amino-6-O-sulfonato-3-O-sulfonato-2-deoxy-α-D-glucopyranosyl)-(1→4)-O-(α-L-idopyranosyluronate)-(1→4)-O-(2-amino-6-O-sulfonato-3-O-sulfonato-2-deoxy-α-D-glucopyranosyl)]-(1→4)-O-α-L-idopyranosiduronate] | 6.81 ± 0.33 | Kd (CCL7 [12]): 11.3 ± 0.18 µM; Koff (CCL7 [12]): 2.86 ± 0.21 × 10^−1 S^−1; Kon (CCL7 [12]): 2.53 ± 0.15 × 10^4 M^−1S^−1
89 | 74 | 95 | 80 | 79 | 79 | 66 | 79 | 91 | 10.7 ± 0.37 | 2.24 ± 0.35 × 10^−1 S^−1 | 2.07 ± 0.26 × 10^4 M^−1S^−1 | 2.14 ± 0.48 × 10^−1 S^−1 | 9.15 ± 0.34 × 10^4 M^−1S^−1 | 2.03 ± 0.17 × 10^−1 S^−1 | 2.07 ± 0.13 × 10^4 M^−1S^−1 | 15.9 ± 0.23 | 1.96 ± 0.29 × 10^−1 S^−1 | 1.23 ± 0.17 × 10^4 M^−1S^−1 | NCCCO[C@@H]1OC(C(=O)O)[C@@H](O[C@H]2OC(COS(=O)(=O)O)[C@@H](O[C@@H]3OC(C(=O)O)[C@@H](O[C@H]4OC(COS(=O)(=O)O)[C@@H](O)C(O)C4N)C(O)C3OS(=O)(=O)O)C(O)C2N)C(O)C1OS(=O)(=O)O (stereo partly drawn) [Example 19, 3-Aminopropyl-O-[(2-amino-6-O-sulfonato-2-deoxy-α-D-glucopyranosyl)-(1→4)-O-(2-O-sulfonato-α-L-idopyranosyluronate)-(1→4)-O-(2-amino-6-O-sulfonato-2-deoxy-α-D-glucopyranosyl)]-(1→4)-O-2-O-sulfonato-α-L-idopyranosiduronate] |  | Kd (CCL2 [9]): 9.82 ± 0.18 µM; Kd (CCL7 [12]): 11.5 ± 0.17 µM; Koff (CCL7 [12]): 2.25 ± 0.29 × 10^−1 S^−1; Kon (CCL7 [12]): 1.96 ± 0.22 × 10^4 M^−1S^−1

SMILES | mean rank binding to CXCL10 (CXCL10 [1]) [%] | mean rank binding to CCL13 (CCL13) [%] | mean rank binding to CCL5 (CCL5 [2]) [%] | mean rank binding to CCL2 (CCL2 [3]) [%] | mean rank binding to CXCL8 (CXCL8 [4]) [%] | mean rank binding to CXCL12 (CXCL12 [5]) [%] | mean rank binding to CCL21 (CCL21) [%] | mean rank binding to CCL28 (CCL28) [%] | mean rank binding to CCL7 (CCL7 [6]) [%] | Kd (CXCL10 [7]) [µM] | Koff (CXCL10 [7]) | Kon (CXCL10 [7]) | Koff (CCL5 [8]) | Kon (CCL5 [8]) | Koff (CCL2 [9]) | Kon (CCL2 [9]) | Kd (CXCL8 [10]) [µM] | Koff (CXCL8 [10]) | Kon (CXCL8 [10]) | Kd (CCL5 [8]) [µM] | also measured
NCCOCCO[C@@H]1O[C@@H](C(=O)O)[C@@H](O[C@@H]2O[C@@H](C(=O)O)[C@@H](O[C@@H]3O[C@@H](C(=O)O)[C@@H](O[C@@H]4O[C@@H](C(=O)O)[C@@H](OS(=O)(=O)O)[C@H](O)[C@H]4OS(=O)(=O)O)[C@H](O)[C@H]3OS(=O)(=O)O)[C@H](O)[C@H]2OS(=O)(=O)O)[C@H](O)[C@H]1OS(=O)(=O)O [Example 12, Ethoxy-2-aminoethoxyl-O-((2-4-O-disulfonato)-α-L-idopyranosyl Uronic Acid-α(1->4)(2-O-sulfonato)-α-L-idopyranosyl Uronic Acid-α(1→4)(2-O-sulfonato)-α-L-idopyranosyl Uronic Acid-α(1→4)(2-O-sulfonato))-α-L-idopyranoside Uronic Acid] | 87 | 70 | 91 | 88 | 96 | 91 | 50 | 72 | 80 | 15.3 ± 0.21 | 2.2 ± 0.38 × 10^−1 S^−1 | 1.44 ± 0.46 × 10^4 M^−1S^−1 | 2.4 ± 0.38 × 10^−1 S^−1 | 4.2 ± 0.46 × 10^4 M^−1S^−1 | 2.1 ± 0.5 × 10^−1 S^−1 | 1.26 ± 0.08 × 10^5 M^−1S^−1 | 9.34 ± 0.21 | 2.96 ± 0.1 × 10^−1 S^−1 | 3.16 ± 0.08 × 10^5 M^−1S^−1 | 5.72 ± 0.24 | Kd (CCL2 [9]): 1.67 ± 0.3 µM; Kd (CXCL12 [11]): 18.8 ± 0.44 µM; Koff (CXCL12 [11]): 2.1 ± 0.78 × 10^−1 S^−1; Kon (CXCL12 [11]): 1.1 ± 0.46 × 10^4 M^−1S^−1
